Where two headings read alike, the source gives them in different places.
Legend:
[1] = biological target: human CB1 receptors (Homo sapiens (Human), UniProt P21554); experiment: cAMP assay, CHO cells expressing human CB1 receptors; type: cell-based
Description: (§1) CHO cells expressing human CB1 or CB2 receptors are seeded 17-24 hours prior to the experiment 50.000 cells per well in a black 96 well plate with flat clear bottom (Corning Costar #3904) in DMEM (Invitrogen No. 31331), 1×HT supplement, with 10% fetal calf serum and incubated at 5% CO2 and 37° C. in a humidified incubator. The growth medium was exchanged with Krebs Ringer Bicarbonate buffer with 1 mM IBMX and incubated at 30° C. for 30 min. Compounds were added to a final assay volume of 100 μl and incubated for 30 min at 30° C. Using the cAMP-Nano-TRF detection kit the assay (Roche Diagnostics) was stopped by the addition of 50 μl lysis reagent (Tris, NaCl, 1.5% Triton X100, 2.5% NP40, 10% NaN3) and 50 μl detection solutions (20 μM mAb Alexa700-cAMP 1:1, and 48 μM Ruthenium-2-AHA-cAMP) and shaken for 2 h at room temperature. The time-resolved energy transfer is measured by a TRF reader (Evotec Technologies GmbH), equipped with a ND:YAG laser as excitation source. The plate is measured twice with the excitation at 355 nm and at the emission with a delay of 100 ns and a gate of 100 ns, total exposure time 10 s at 730 (bandwidth 30 nm) or 645 nm (bandwidth 75 nm), respectively. The FRET signal is calculated as follows: FRET=T730-Alexa730-P(T645-B645) with P=Ru730-B730/Ru645-B645, where T730 is the test well measured at 730 nM, T645 is the test well measured at 645 nm, B730 and B645 are the buffer controls at 730 nm and 645 nm, respectively. cAMP content is determined from the function of a standard curve spanning from 10 μM to 0.13 nM cAMP.
(§2) EC50 values were determined using Activity Base analysis (ID Business Solution, Limited). The EC50 values for a wide range of cannabinoid agonists generated from this assay were in agreement with the values published in the scientific literature.

[2] = biological target: human CB2 receptors (Homo sapiens (Human), UniProt P34972); experiment: cAMP assay, CHO cells expressing human CB2 receptors; type: cell-based; settings: functional cAMP assay, read-out: CB2 hcAMP EC50
Sequence of human CB2 receptors (P34972 whole entry): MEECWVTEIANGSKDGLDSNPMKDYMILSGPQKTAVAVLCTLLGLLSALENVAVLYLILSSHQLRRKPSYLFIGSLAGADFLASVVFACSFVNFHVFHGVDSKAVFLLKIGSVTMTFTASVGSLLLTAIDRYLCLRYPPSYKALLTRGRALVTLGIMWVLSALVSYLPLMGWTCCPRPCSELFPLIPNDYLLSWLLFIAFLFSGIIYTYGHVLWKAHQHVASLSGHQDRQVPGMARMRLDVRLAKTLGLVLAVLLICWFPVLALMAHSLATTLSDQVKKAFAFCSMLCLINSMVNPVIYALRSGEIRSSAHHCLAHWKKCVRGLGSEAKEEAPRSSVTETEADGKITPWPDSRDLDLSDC
Description: as §1, §2

[3] = functional cAMP assay, CHO cells expressing human CB1, read-out: CB1 hcAMP EC50

Sequence of human CB1 receptors (P21554 whole entry): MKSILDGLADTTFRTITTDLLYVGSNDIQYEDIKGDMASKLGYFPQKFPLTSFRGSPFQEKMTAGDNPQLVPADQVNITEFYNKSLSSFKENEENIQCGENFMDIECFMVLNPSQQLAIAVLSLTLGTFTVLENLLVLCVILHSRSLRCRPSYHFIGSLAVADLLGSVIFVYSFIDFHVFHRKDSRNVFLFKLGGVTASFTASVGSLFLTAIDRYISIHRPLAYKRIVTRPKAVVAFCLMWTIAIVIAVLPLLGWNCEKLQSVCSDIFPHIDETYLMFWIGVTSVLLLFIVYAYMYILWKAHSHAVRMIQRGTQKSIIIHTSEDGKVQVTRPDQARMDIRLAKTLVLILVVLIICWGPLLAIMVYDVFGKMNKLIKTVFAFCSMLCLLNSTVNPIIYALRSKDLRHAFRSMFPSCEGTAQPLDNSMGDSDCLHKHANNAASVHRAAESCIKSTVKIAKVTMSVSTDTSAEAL

SMILES | EC50 [1, 3] | EC50 [2] | EC50 [1]
CC(C)(C)c1nc(C2(O)CCCC2)c2nnn(Cc3ccccc3Cl)c2n1 [Example 34, 1-[5-tert-Butyl-3-[(2-chlorophenyl)methyl]triazolo[4,5-d]pyrimidin-7-yl]cyclopentanol] | > 10000 nM | 35.3 nM | 
CC(C)(C)c1nc(C2(O)CCCCC2)c2nnn(Cc3ccccc3Cl)c2n1 [Example 35, 1-[5-tert-Butyl-3-[(2-chlorophenyl)methyl]triazolo[4,5-d]pyrimidin-7-yl]cyclohexanol] | > 10000 nM | 172 nM | 
CC(C)(C)c1nc(C2(O)CCCCCC2)c2nnn(Cc3ccccc3Cl)c2n1 [Example 36, 1-[5-tert-Butyl-3-[(2-chlorophenyl)methyl]triazolo[4,5-d]pyrimidin-7-yl]cycloheptanol] | > 10000 nM | 17.3 nM | 
CC(C)(C)c1nc(C2(O)CCCCCCC2)c2nnn(Cc3ccccc3Cl)c2n1 [Example 37, 1-[5-tert-Butyl-3-[(2-chlorophenyl)methyl]triazolo[4,5-d]pyrimidin-7-yl]cyclooctanol] |  | 126 nM | > 10000 nM
CCC(O)(CC)c1nc(C(C)(C)C)nc2c1nnn2Cc1ccccc1Cl [Example 38, 3-[5-tert-Butyl-3-[(2-chlorophenyl)methyl]triazolo[4,5-d]pyrimidin-7-yl]pentan-3-ol] | > 10000 nM | 45.3 nM | 
CC(C)(C)c1nc(C2(O)CSC2)c2nnn(Cc3ccccc3Cl)c2n1 [Example 39, 3-[5-tert-Butyl-3-[(2-chlorophenyl)methyl]triazolo[4,5-d]pyrimidin-7-yl]thietan-3-ol] | > 10000 nM | 168 nM | 
CC(C)(C)c1nc2c(nnn2Cc2ccccc2Cl)c([C@]2(O)C[C@H](C(F)F)C2)n1 [Example 40, Trans-1-[5-tert-Butyl-3-[(2-chlorophenyl)methyl]triazolo[4,5-d]pyrimidin-7-yl]-3-(difluoromethyl)cyclobutanol] | 1810 nM | 9.8 nM | 
CC(C)(C)c1nc2c(nnn2Cc2ccccc2Cl)c([C@]2(O)C[C@@H](C(F)F)C2)n1 [Example 41, Cis-1-[5-tert-Butyl-3-[(2-chlorophenyl)methyl]triazolo[4,5-d]pyrimidin-7-yl]-3-(difluoromethyl)cyclobutanol] | > 10000 nM | 30.5 nM | 
CC(C)(C)c1nc(C2(O)C[S+]([O-])C2)c2nnn(Cc3ccccc3Cl)c2n1 (centres unmarked) [Example 42, 3-[5-tert-Butyl-3-[(2-chlorophenyl)methyl]triazolo[4,5-d]pyrimidin-7-yl]-1-oxo-thietan-3-ol] | > 10000 nM | 110 nM | 
CC(C)(C)c1nc(C2(CF)CC2)c2nnn(Cc3ccccc3Cl)c2n1 [Example 43, 5-tert-Butyl-3-[(2-chlorophenyl)methyl]-7-[1-(fluoromethyl)cyclopropyl]triazolo[4,5-d]pyrimidine] | > 10000 nM | 903 nM | 
CC(C)(C)c1nc(C2=CCCC2)c2nnn(Cc3ccccc3Cl)c2n1 [Example 44, 5-tert-Butyl-3-[(2-chlorophenyl)methyl]-7-(cyclopenten-1-yl)triazolo[4,5-d]pyrimidine] | > 10000 nM | 4 nM | 
CC(C)(C)c1nc(C2CCCC2)c2nnn(Cc3ccccc3Cl)c2n1 [Example 45a, 5-tert-Butyl-3-[(2-chlorophenyl)methyl]-7-cyclopentyl-triazolo[4,5-d]pyrimidine] | > 10000 nM | 94.4 nM | 
CC(C)(C)c1nc(C2CCCC2)c2nnn(Cc3ccccc3)c2n1 [Example 45b, 3-benzyl-5-tert-butyl-7-cyclopentyl-triazolo[4,5-d]pyrimidine] | > 10000 nM | 30 nM | 

Source: patent US10183946B2, “Triazolo[4,5-D]pyrimidines” (Hoffmann—La Roche Inc., priority 2014, dated 2019)
